According to patent US12180187B2, “1-phenyl-5-azinylpyrazolyl-3-oxyalkyl acids and their use for controlling unwanted plant growth” (BAYER AKTIENGESELLSCHAFT, priority 2019, dated 2024):

How the values were obtained:
[1] = test system: ABUTH; assay: Pre-emergence action against ABUTH, 1280 g/ha; type: in vivo, Abutilon theophrasti; conditions: scored visually after about 3 weeks vs untreated controls (100% = plants have died)
Outline: (§1)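 Sandy loam pots, seeds covered with soil; aqueous WP/EC spray on covering soil, 0.5% additive, 600 L/ha. Greenhouse growth, good conditions. Readout: visual % activity at ~3 weeks (0% = like control, 100% = dead).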

[2] = test system: VIOTR; assay: Pre-emergence action at 320 g/ha against VIOTR; type: in vivo, Viola tricolor; conditions: dosage 320 g/ha
Outline: (§2)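 Weed and crop seeds sown in pots and covered with soil; WP or EC formulations sprayed pre-emergence onto the soil surface at 320 g/ha with 0.5% additive in 600 l/ha water. Kept in greenhouse; after about 3 weeks activity scored visually as % versus untreated controls (100% = plants dead, 0% = as control).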

[3] = test system: VERPE; assay: Post-emergence action against VERPE, 1.28 kg/ha; type: in vivo, Veronica persica; conditions: dosage 1280 g/ha, visual rating about 3 weeks after treatment vs untreated controls (100% = plants died)
Outline: (§3)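 Greenhouse pot test, sandy loam; weeds sprayed post-emergence at one-leaf stage (2–3 weeks after sowing) with WP or EC formulation plus 0.5% additive, 600 l/ha water. Visual rating after about 3 weeks versus untreated controls, 100% = plants dead, 0% = like control.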

[4] = test system: STEME; assay: Post-emergence action against STEME, 1.28 kg/ha; type: in vivo, Stellaria media; conditions: dosage 1280 g/ha, visual rating about 3 weeks after treatment vs untreated controls (100% = plants died)
Outline: as §3

[5] = test system: AVEFA; assay: Post-emergence action at 320 g/ha against AVEFA; type: in vivo; conditions: visual rating about 3 weeks after treatment vs untreated controls
Source text: (§4) Accordingly, the compounds of the invention have good herbicidal action against a broad spectrum of weed grasses and broad-leaved weeds and are therefore suitable for controlling unwanted vegetation by the post-emergence method. • b) Seeds of monocotyledonous and dicotyledonous weeds and crop plants are placed in sandy loam in plastic or organic planting pots, covered with soil and cultivated in a greenhouse under controlled growth conditions. 2 to 3 weeks after sowing, the test plants are treated at the one-leaf stage. The compounds of the invention, formulated in the form of wettable powders (WP) or as emulsion concentrates (EC), are then sprayed onto the green parts of the plants as aqueous suspension or emulsion with addition of 0.5% additive at a water application rate of 600 l/ha (converted). After the test plants have been kept in the greenhouse under optimum growth conditions for about 3 weeks, the activity of the preparations is rated visually in comparison to untreated controls. For example, 100% activity=the plants have died, 0% activity=like control plants. Tables 39 to 49 below show the effects of selected compounds of the general formula (I) according to Tables 1 and 2 on various harmful plants and at an application rate corresponding to 320 g/ha, which were obtained by the experimental procedure mentioned above.

[6] = test system: POAAN; assay: Post-emergence action against POAAN, 1.28 kg/ha; type: in vivo, Poa annua; conditions: dosage 1280 g/ha, visual rating about 3 weeks after treatment vs untreated controls
Outline: as §3

[7] = test system: ALOMY; assay: Post-emergence action against ALOMY, 320 g/ha; type: in vivo, Alopecurus myosuroides; conditions: dosage 320 g/ha, visual rating about 3 weeks after treatment vs untreated controls (100% = plants died)
Source text: as §4

[8] = test system: STEME; assay: Pre-emergence action against STEME, 1280 g/ha; type: in vivo, Stellaria media; conditions: scored visually after about 3 weeks vs untreated controls (100% = plants have died)
Outline: as §1

[9] = test system: MATIN; assay: Post-emergence action against MATIN, 1.28 kg/ha; type: in vivo, Tripleurospermum inodorum (Matricaria inodora); conditions: dosage 1280 g/ha, visual rating about 3 weeks after treatment vs untreated controls (100% = plants died)
Outline: as §3

[10] = test system: SETVI; assay: Post-emergence action at 320 g/ha against SETVI; type: in vivo, Setaria viridis; conditions: visual rating about 3 weeks after treatment vs untreated controls
Source text: as §4

[11] = test system: AMARE; assay: Pre-emergence action against AMARE, 1280 g/ha; type: in vivo, Amaranthus retroflexus; conditions: scored visually after about 3 weeks vs untreated controls (100% = plants have died)
Outline: as §1

[12] = test system: DIGSA; assay: Pre-emergence action at 320 g/ha against DIGSA; type: in vivo, Digitaria sanguinalis; conditions: visual scoring after about 3 weeks vs untreated controls
Outline: as §2

[13] = test system: AMARE; assay: Pre-emergence action at 320 g/ha against AMARE; type: in vivo, Amaranthus retroflexus; conditions: visual scoring after about 3 weeks vs untreated controls
Outline: as §2

[14] = test system: AMARE; assay: Post-emergence action against AMARE, 1.28 kg/ha; type: in vivo, Amaranthus retroflexus; conditions: dosage 1280 g/ha, visual rating about 3 weeks after treatment vs untreated controls (100% = plants died)
Outline: as §3

[15] = test system: MATIN; assay: Pre-emergence action at 320 g/ha against MATIN; type: in vivo, Tripleurospermum inodorum (Matricaria inodora); conditions: visual scoring after about 3 weeks vs untreated controls
Outline: as §2

[16] = test system: SETVI; assay: Pre-emergence action against SETVI, 1280 g/ha; type: in vivo, Setaria viridis; conditions: visual scoring after about 3 weeks vs untreated controls, 100% = plants have died, 0% = like control plants
Outline: as §1

[17] = test system: POAAN; assay: Pre-emergence action against POAAN, 1280 g/ha; type: in vivo, Poa annua; conditions: visual scoring after about 3 weeks vs untreated controls, 100% = plants have died, 0% = like control plants
Outline: as §1

[18] = test system: ECHCG; assay: Post-emergence action against ECHCG, 1.28 kg/ha; type: in vivo, Echinochloa crus-galli; conditions: dosage 1280 g/ha, visual rating about 3 weeks after treatment vs untreated controls
Outline: as §3

[19] = test system: ECHCG; assay: Pre-emergence action against ECHCG, 1280 g/ha; type: in vivo, Echinochloa crus-galli; conditions: visual scoring after about 3 weeks vs untreated controls, 100% = plants have died, 0% = like control plants
Outline: as §1

[20] = test system: SETVI; assay: Post-emergence action against SETVI, 1.28 kg/ha; type: in vivo, Setaria viridis; conditions: dosage 1280 g/ha, visual rating about 3 weeks after treatment vs untreated controls
Outline: as §3

[21] = test system: VERPE; assay: Pre-emergence action against VERPE, 1280 g/ha; type: in vivo, Veronica persica; conditions: scored visually after about 3 weeks vs untreated controls (100% = plants have died)
Outline: as §1

[22] = test system: VERPE; assay: Pre-emergence action at 320 g/ha against VERPE; type: in vivo, Veronica persica; conditions: visual scoring after about 3 weeks vs untreated controls
Outline: as §2

[23] = test system: POLCO; assay: Post-emergence action at 320 g/ha against POLCO; type: in vivo, Fallopia convolvulus (Polygonum convolvulus); conditions: visual rating about 3 weeks after treatment vs untreated controls
Source text: as §4

[24] = test system: ALOMY; assay: Pre-emergence action against ALOMY, 1280 g/ha; type: in vivo, Alopecurus myosuroides; conditions: visual scoring after about 3 weeks vs untreated controls, 100% = plants have died, 0% = like control plants
Outline: as §1

[25] = test system: LOLRI; assay: Pre-emergence action against LOLRI, 1280 g/ha; type: in vivo, Lolium rigidum; conditions: visual scoring after about 3 weeks vs untreated controls, 100% = plants have died, 0% = like control plants
Outline: as §1

[26] = test system: ABUTH; assay: Post-emergence action at 320 g/ha against ABUTH; type: in vivo, Abutilon theophrasti; conditions: visual rating about 3 weeks after treatment vs untreated controls
Source text: as §4

[27] = test system: MATIN; assay: Pre-emergence action against MATIN, 1280 g/ha; type: in vivo, Tripleurospermum inodorum (Matricaria inodora); conditions: scored visually after about 3 weeks vs untreated controls (100% = plants have died)
Outline: as §1

[28] = test system: AVEFA; assay: Pre-emergence action at 320 g/ha against AVEFA; type: in vivo; conditions: visual scoring after about 3 weeks vs untreated controls
Outline: as §2

[29] = test system: DIGSA; assay: Post-emergence action at 320 g/ha against DIGSA; type: in vivo, Digitaria sanguinalis; conditions: dosage 320 g/ha, visual rating about 3 weeks after treatment vs untreated controls (100% = plants died)
Source text: as §4

[30] = test system: DIGSA; assay: Pre-emergence action against DIGSA, 1280 g/ha; type: in vivo, Digitaria sanguinalis; conditions: visual scoring after about 3 weeks vs untreated controls, 100% = plants have died, 0% = like control plants
Outline: as §1

[31] = test system: DIGSA; assay: Post-emergence action against DIGSA, 1.28 kg/ha; type: in vivo, Digitaria sanguinalis; conditions: dosage 1280 g/ha, visual rating about 3 weeks after treatment vs untreated controls
Outline: as §3

[32] = test system: POLCO; assay: Pre-emergence action at 320 g/ha against POLCO; type: in vivo, Fallopia convolvulus (Polygonum convolvulus); conditions: visual scoring after about 3 weeks vs untreated controls
Outline: as §2

[33] = test system: PHBPU; assay: Pre-emergence action at 320 g/ha against PHBPU; type: in vivo; conditions: visual scoring after about 3 weeks vs untreated controls
Source text: b) Seeds of monocotyledonous and dicotyledonous weed plants and crop plants are placed in plastic or organic planting pots and covered with soil. The compounds of the invention, formulated in the form of wettable powders (WP) or as emulsion concentrates (EC), are then applied onto the surface of the covering soil as aqueous suspension or emulsion with addition of 0.5% additive at a water application rate of 600 l/ha (converted). After the treatment, the pots are placed in a greenhouse and kept under good growth conditions for the trial plants. After about 3 weeks, the effect of the preparations is scored visually in comparison with untreated controls as percentages. For example, 100% activity=the plants have died, 0% activity=like control plants. Tables 13 to 26 below show the effects of selected compounds of the general formula (I) on various harmful plants and at an application rate corresponding to 320 g/ha, which were obtained by the experimental procedure mentioned above.

[34] = test system: ECHCG; assay: Post-emergence action at 320 g/ha against ECHCG; type: in vivo, Echinochloa crus-galli; conditions: dosage 320 g/ha, visual rating about 3 weeks after treatment vs untreated controls (100% = plants died)
Source text: as §4

[35] = test system: ECHGC; assay: Pre-emergence action at 320 g/ha against ECHGC; type: in vivo, Echinochloa crus-galli; conditions: visual scoring after about 3 weeks vs untreated controls
Outline: as §2

[36] = test system: ALOMY; assay: Pre-emergence action at 320 g/ha against ALOMY; type: in vivo, Alopecurus myosuroides; conditions: scored visually after about 3 weeks vs untreated controls (100% = plants have died)
Outline: as §2

[37] = test system: PHBPU; assay: Post-emergence action at 320 g/ha against PHBPU; type: in vivo; conditions: visual rating about 3 weeks after treatment vs untreated controls
Source text: as §4

[38] = test system: VIOTR; assay: Post-emergence action at 320 g/ha against VIOTR; type: in vivo, Viola tricolor; conditions: visual rating about 3 weeks after treatment vs untreated controls
Source text: as §4

[39] = test system: SETVI; assay: Pre-emergence action at 320 g/ha against SETVI; type: in vivo, Setaria viridis; conditions: visual scoring after about 3 weeks vs untreated controls
Outline: as §2

[40] = test system: LOLRI; assay: Pre-emergence action at 320 g/ha against LOLRI; type: in vivo, Lolium rigidum; conditions: visual scoring after about 3 weeks vs untreated controls
Outline: as §2

[41] = test system: AMARE; assay: Post-emergence action at 320 g/ha against AMARE; type: in vivo, Amaranthus retroflexus; conditions: visual rating about 3 weeks after treatment vs untreated controls
Source text: as §4

CCOC(=O)COc1nn(-c2ccccc2F)c(-c2cncnc2)c1Br [VI-001]
100%: Pre-emergence action against VIOTR in % [2] | Post-emergence action against VERPE [3] | Post-emergence action against STEME [4] | Post-emergence action against POAAN [6] | Pre-emergence action against STEME [8] | Pre-emergence action against AMARE [11] | Pre-emergence action against DIGSA in % [12] | Pre-emergence action against AMARE in % [13] | Pre-emergence action against SETVI [16] | Pre-emergence action against POAAN [17] | Post-emergence action against ECHCG [18] | Pre-emergence action against ECHCG [19] | Post-emergence action against SETVI [20] | Pre-emergence action against VERPE [21] | Pre-emergence action against VERPE in % [22] | Pre-emergence action against LOLRI [25] | Pre-emergence action against MATIN [27] | Post-emergence action against DIGSA [31] | Pre-emergence action against POLCO in % [32]
80%: Post-emergence action against AVEFA in % [5] | Post-emergence action against SETVI in % [10] | Post-emergence action against ABUTH in % [26]
90%: Pre-emergence action against ABUTH [1] | Post-emergence action against ALOMY [7] | Post-emergence action against MATIN [9] | Post-emergence action against AMARE [14] | Pre-emergence action against MATIN in % [15] | Post-emergence action against POLCO in % [23] | Pre-emergence action against ALOMY [24] | Pre-emergence action against AVEFA in % [28] | Post-emergence action at 320 g/ha against DIGSA in % [29] | Pre-emergence action against DIGSA [30]

COC(=O)COc1nn(-c2ccccc2F)c(-c2ccc(F)nc2)c1Br [VII-001]
100%: Pre-emergence action against VIOTR in % [2] | Pre-emergence action against DIGSA in % [12] | Pre-emergence action against AMARE in % [13] | Pre-emergence action against PHBPU in % [33] | Post-emergence action at 320 g/ha against ECHCG in % [34] | Pre-emergence action against ECHGC in % [35] | Pre-emergence action at 320 g/ha against ALOMY in % [36] | Pre-emergence action against VERPE in % [22] | Pre-emergence action against SETVI in % [39] | Pre-emergence action against LOLRI in % [40]
90%: Post-emergence action against AVEFA in % [5] | Post-emergence action against ALOMY [7] | Post-emergence action against SETVI in % [10] | Pre-emergence action against MATIN in % [15] | Post-emergence action against PHBPU in % [37] | Post-emergence action against AMARE in % [41] | Pre-emergence action against AVEFA in % [28] | Post-emergence action at 320 g/ha against DIGSA in % [29] | Pre-emergence action against POLCO in % [32]
80%: Post-emergence action against VIOTR in % [38] | Post-emergence action against POLCO in % [23] | Post-emergence action against ABUTH in % [26]
